Experimental data as given in US12214092B2, “Systems and methods for treating biological fluids” (Cerus Corporation, priority 2017, dated 2025).

Legend:
[1] = Photochemical conversion of S-59 (150 μM) and photoproduct profile in plasma, PAS or PAS+plasma units, HPLC; type: physicochemical
platelets = test: Platelet quality, platelets in 100% plasma, amotosalen 30-110 μM, 340 nm device ~7.2 J/cm^2
Description: Multiple donor platelet units in 10000 plasma (5 units, ˜278-391 mL) were pooled and split into 5 units of ˜285 mL each, to be used as an untreated control, or treated with amotosalen at different concentrations, with ultraviolet A illumination using the 340 nm device. Amotosalen was added to a concentration of 30, 60, 90 or 110 μM, then pre-illumination (pre-UV) samples were removed for analysis, and the remainder of the units subjected to illumination at ˜7.2 J/cm^2. Post-illumination (Post-UV) samples were then removed for post-treatment analysis.

[2] = 65/35 PAS+Plasma, 340 nm LED ~3.6 J/cm^2
[3] = 65/35 PAS+Plasma, 365 nm LED ~3.6 J/cm^2

Cc1oc2c(C)c3oc(=O)cc(C)c3cc2c1COCCN [S-59, 3-(2-aminoethoxymethyl)-2,5,9-trimethylfuro[3,2-g]chromen-7-one]
% of input S-59 remaining [1, 2]: 9.1% | Post-illumination HPLC area counts [1, 2]: 1249 | % of input S-59 remaining [1, 3]: 46.2% | Post-illumination HPLC area counts [1, 3]: 5889 | % of input S-59 remaining ([1]; PAS, 340 nm LED ~3 J/cm^2): 13.4% | Post-illumination HPLC area counts ([1]; PAS, 340 nm LED ~3 J/cm^2): 1436 | % of input S-59 remaining ([1]; PAS, 365 nm LED ~3 J/cm^2): 36.8% | Post-illumination HPLC area counts ([1]; PAS, 365 nm LED ~3 J/cm^2): 4118 | % of input S-59 remaining ([1]; PAS, INT100 ~6.4 J/cm^2): 26.2% | Post-illumination HPLC area counts ([1]; PAS, INT100 ~6.4 J/cm^2): 2905 | % of input S-59 remaining ([1]; Plasma, 340 nm LED ~6.4 J/cm^2): 33.1% | Post-illumination HPLC area counts ([1]; Plasma, 340 nm LED ~6.4 J/cm^2): 4957 | % of input S-59 remaining ([1]; Plasma, 365 nm LED ~6.4 J/cm^2): 66.8% | Post-illumination HPLC area counts ([1]; Plasma, 365 nm LED ~6.4 J/cm^2): 9675 | % of input S-59 remaining ([1]; Plasma, INT100 ~6.4 J/cm^2): 60.5% | Post-illumination HPLC area counts ([1]; Plasma, INT100 ~6.4 J/cm^2): 8513 | Glucose (platelets; 30 μM, D3): 14.9 mmol/L | LDH (platelets; 30 μM, D3): 14.5 LDH IU/10^11 platelets | Lactate (platelets; 30 μM, D3): 6.9 mmol/L | Platelet counts (platelets; 30 μM, D3): 1155 x10^3 cells/μL | Platelet lysis (platelets; 30 μM, D3): 5.22% | pCO2 at 37° C. (platelets; 30 μM, D3): 38.1 mm Hg | pH at 22° C. (platelets; 30 μM, D3): 7.43 | pH at 37° C. (platelets; 30 μM, D3): 7.21 | pO2 at 37° C. (platelets; 30 μM, D3): 74.6 mm Hg | Glucose (platelets; 30 μM, D7): 11.9 mmol/L | LDH (platelets; 30 μM, D7): 17.4 LDH IU/10^11 platelets | Lactate (platelets; 30 μM, D7): 12.1 mmol/L | Platelet counts (platelets; 30 μM, D7): 1155 x10^3 cells/μL | Platelet lysis (platelets; 30 μM, D7): 6.10% | pCO2 at 37° C. (platelets; 30 μM, D7): 31.2 mm Hg | pH at 22° C. (platelets; 30 μM, D7): 7.32 | pH at 37° C. (platelets; 30 μM, D7): 7.10 | pO2 at 37° C. (platelets; 30 μM, D7): 78.5 mm Hg | Glucose (platelets; 30 μM, Post-UV): 15.9 mmol/L | LDH (platelets; 30 μM, Post-UV): 15.0 LDH IU/10^11 platelets | Lactate (platelets; 30 μM, Post-UV): 5.7 mmol/L | Platelet counts (platelets; 30 μM, Post-UV): 1115 x10^3 cells/μL | Platelet lysis (platelets; 30 μM, Post-UV): 5.31% | pCO2 at 37° C. (platelets; 30 μM, Post-UV): 50.2 mm Hg | pH at 22° C. (platelets; 30 μM, Post-UV): 7.37 | pH at 37° C. (platelets; 30 μM, Post-UV): 7.15 | pO2 at 37° C. (platelets; 30 μM, Post-UV): 13.9 mm Hg | Glucose (platelets; 30 μM, Pre-UV): 16.0 mmol/L | LDH (platelets; 30 μM, Pre-UV): 13.7 LDH IU/10^11 platelets | Lactate (platelets; 30 μM, Pre-UV): 5.4 mmol/L | Platelet counts (platelets; 30 μM, Pre-UV): 1200 x10^3 cells/μL | Platelet lysis (platelets; 30 μM, Pre-UV): 4.92% | pCO2 at 37° C. (platelets; 30 μM, Pre-UV): 52.4 mm Hg | pH at 22° C. (platelets; 30 μM, Pre-UV): 7.36 | pH at 37° C. (platelets; 30 μM, Pre-UV): 7.14 | pO2 at 37° C. (platelets; 30 μM, Pre-UV): 28.6 mm Hg | Glucose (platelets; 60 μM, D3): 15.0 mmol/L | LDH (platelets; 60 μM, D3): 13.9 LDH IU/10^11 platelets | Lactate (platelets; 60 μM, D3): 6.8 mmol/L | Platelet counts (platelets; 60 μM, D3): 1152 x10^3 cells/μL | Platelet lysis (platelets; 60 μM, D3): 5.15% | pCO2 at 37° C. (platelets; 60 μM, D3): 38.1 mm Hg | pH at 22° C. (platelets; 60 μM, D3): 7.43 | pH at 37° C. (platelets; 60 μM, D3): 7.20 | pO2 at 37° C. (platelets; 60 μM, D3): 65.8 mm Hg | Glucose (platelets; 60 μM, D7): 11.6 mmol/L | LDH (platelets; 60 μM, D7): 36.5 LDH IU/10^11 platelets | Lactate (platelets; 60 μM, D7): 11.8 mmol/L | Platelet counts (platelets; 60 μM, D7): 1041 x10^3 cells/μL | Platelet lysis (platelets; 60 μM, D7): 11.82% | pCO2 at 37° C. (platelets; 60 μM, D7): 31.2 mm Hg | pH at 22° C. (platelets; 60 μM, D7): 7.32 | pH at 37° C. (platelets; 60 μM, D7): 7.09 | pO2 at 37° C. (platelets; 60 μM, D7): 78.0 mm Hg | Glucose (platelets; 60 μM, Post-UV): 15.9 mmol/L | LDH (platelets; 60 μM, Post-UV): 14.3 LDH IU/10^11 platelets | Lactate (platelets; 60 μM, Post-UV): 5.6 mmol/L | Platelet counts (platelets; 60 μM, Post-UV): 1117 x10^3 cells/μL | Platelet lysis (platelets; 60 μM, Post-UV): 5.10% | pCO2 at 37° C. (platelets; 60 μM, Post-UV): 49.2 mm Hg | pH at 22° C. (platelets; 60 μM, Post-UV): 7.37 | pH at 37° C. (platelets; 60 μM, Post-UV): 7.15 | pO2 at 37° C. (platelets; 60 μM, Post-UV): 20.4 mm Hg | Glucose (platelets; 60 μM, Pre-UV): 16.2 mmol/L | LDH (platelets; 60 μM, Pre-UV): 13.6 LDH IU/10^11 platelets | Lactate (platelets; 60 μM, Pre-UV): 5.4 mmol/L | Platelet counts (platelets; 60 μM, Pre-UV): 1160 x10^3 cells/μL | Platelet lysis (platelets; 60 μM, Pre-UV): 4.71% | pCO2 at 37° C. (platelets; 60 μM, Pre-UV): 52.4 mm Hg | pH at 22° C. (platelets; 60 μM, Pre-UV): 7.36 | pH at 37° C. (platelets; 60 μM, Pre-UV): 7.14 | pO2 at 37° C. (platelets; 60 μM, Pre-UV): 32.7 mm Hg | Glucose (platelets; 90 μM, D3): 14.9 mmol/L | Lactate (platelets; 90 μM, D3): 7.3 mmol/L | Platelet counts (platelets; 90 μM, D3): 1157 x10^3 cells/μL | Platelet lysis (platelets; 90 μM, D3): 4.88% | pCO2 at 37° C. (platelets; 90 μM, D3): 40.3 mm Hg | pH at 22° C. (platelets; 90 μM, D3): 7.39 | pH at 37° C. (platelets; 90 μM, D3): 7.17 | pO2 at 37° C. (platelets; 90 μM, D3): 82.2 mm Hg | Glucose (platelets; 90 μM, D7): 10.6 mmol/L | Lactate (platelets; 90 μM, D7): 13.6 mmol/L | Platelet counts (platelets; 90 μM, D7): 1199 x10^3 cells/μL | Platelet lysis (platelets; 90 μM, D7): 5.42% | pCO2 at 37° C. (platelets; 90 μM, D7): 33.5 mm Hg | pH at 22° C. (platelets; 90 μM, D7): 7.23 | pH at 37° C. (platelets; 90 μM, D7): 7.00 | pO2 at 37° C. (platelets; 90 μM, D7): 87.9 mm Hg | Glucose (platelets; 90 μM, Post-UV): 15.9 mmol/L | Lactate (platelets; 90 μM, Post-UV): 5.7 mmol/L | Platelet counts (platelets; 90 μM, Post-UV): 1115 x10^3 cells/μL | Platelet lysis (platelets; 90 μM, Post-UV): 5.13% | pCO2 at 37° C. (platelets; 90 μM, Post-UV): 48.5 mm Hg | pH at 22° C. (platelets; 90 μM, Post-UV): 7.37 | pH at 37° C. (platelets; 90 μM, Post-UV): 7.15 | pO2 at 37° C. (platelets; 90 μM, Post-UV): 24.1 mm Hg | Glucose (platelets; 90 μM, Pre-UV): 15.9 mmol/L | Lactate (platelets; 90 μM, Pre-UV): 5.3 mmol/L | Platelet counts (platelets; 90 μM, Pre-UV): 1165 x10^3 cells/μL | Platelet lysis (platelets; 90 μM, Pre-UV): 4.97% | pCO2 at 37° C. (platelets; 90 μM, Pre-UV): 50.8 mm Hg | pH at 22° C. (platelets; 90 μM, Pre-UV): 7.37 | pH at 37° C. (platelets; 90 μM, Pre-UV): 7.14 | pO2 at 37° C. (platelets; 90 μM, Pre-UV): 54.6 mm Hg | Glucose (platelets; 110 μM, D3): 14.7 mmol/L | LDH (platelets; 110 μM, D3): 17.0 LDH IU/10^11 platelets | Lactate (platelets; 110 μM, D3): 7.3 mmol/L | Platelet counts (platelets; 110 μM, D3): 1103 x10^3 cells/μL | Platelet lysis (platelets; 110 μM, D3): 5.90% | pCO2 at 37° C. (platelets; 110 μM, D3): 38.6 mm Hg | pH at 22° C. (platelets; 110 μM, D3): 7.40 | pH at 37° C. (platelets; 110 μM, D3): 7.18 | pO2 at 37° C. (platelets; 110 μM, D3): 69.9 mm Hg | Glucose (platelets; 110 μM, D7): 10.4 mmol/L | LDH (platelets; 110 μM, D7): 16.0 LDH IU/10^11 platelets | Lactate (platelets; 110 μM, D7): 13.8 mmol/L | Platelet counts (platelets; 110 μM, D7): 1153 x10^3 cells/μL | Platelet lysis (platelets; 110 μM, D7): 6.13% | pCO2 at 37° C. (platelets; 110 μM, D7): 31.7 mm Hg | pH at 22° C. (platelets; 110 μM, D7): 7.24 | pH at 37° C. (platelets; 110 μM, D7): 7.01 | pO2 at 37° C. (platelets; 110 μM, D7): 90.5 mm Hg | Glucose (platelets; 110 μM, Post-UV): 16.0 mmol/L | LDH (platelets; 110 μM, Post-UV): 12.0 LDH IU/10^11 platelets | Lactate (platelets; 110 μM, Post-UV): 5.4 mmol/L | Platelet counts (platelets; 110 μM, Post-UV): 1239 x10^3 cells/μL | Platelet lysis (platelets; 110 μM, Post-UV): 4.63% | pCO2 at 37° C. (platelets; 110 μM, Post-UV): 48.1 mm Hg | pH at 22° C. (platelets; 110 μM, Post-UV): 7.37 | pH at 37° C. (platelets; 110 μM, Post-UV): 7.14 | pO2 at 37° C. (platelets; 110 μM, Post-UV): 189.7 mm Hg | Glucose (platelets; 110 μM, Pre-UV): 15.9 mmol/L | LDH (platelets; 110 μM, Pre-UV): 12.4 LDH IU/10^11 platelets | Lactate (platelets; 110 μM, Pre-UV): 5.3 mmol/L | Platelet counts (platelets; 110 μM, Pre-UV): 1209 x10^3 cells/μL | Platelet lysis (platelets; 110 μM, Pre-UV): 4.61% | pCO2 at 37° C. (platelets; 110 μM, Pre-UV): 51.8 mm Hg | pH at 22° C. (platelets; 110 μM, Pre-UV): 7.36 | pH at 37° C. (platelets; 110 μM, Pre-UV): 7.13 | pO2 at 37° C. (platelets; 110 μM, Pre-UV): 88.6 mm Hg
